Data on one compound can be found in patent publication US11207289B2, “Use of benzofuran lignans to induce IL-25 expression and suppress mammary tumor metastasis” (ACADEMIA SINICA, priority 2016, dated 2021).

Data set [1] can be described thus: MTT assay, cytotoxic effect on WI38. Conditions: human, WI38 cells (human fibroblast cell line). It is filed as cell-based. The method, then: M10, WI38, SKBR3, and MDA-MB-231 cells (1×10^5 cells/ml) dispensed in 96-well plates were incubated with vehicle or test compounds (Q2-3) for 24 h or 72 h in corresponding basal medium in a 5% CO2 incubator. To evaluate the effect of secreted IL-25 from Q2-3-treated fibroblasts on growth activity of mammary tumor cells, 4T1 and MDA-MB-231 cells (1×10^4 cells/ml) dispensed in 96-well plates were incubated with control medium or different fibroblast conditioned media (200 μl/ml) which was changed daily for 5 days. All treatments were performed in triplicate cell cultures. The growth activity of cells was assayed using a 3-(4, 5-dimethythiazol-2-yl)-2, 5-diphenyl tetrazolium bromide (MTT; Sigma-Aldrich) colorimetric method. The absorbance at 570 nm (A570) was measured using a multiwall scanning spectrophotometer.
FIG. 1 is a schematic depiction of cytotoxic effects of dihydrobenzofuran lignan (Q2-3) on breast tumor cells. (a): Scheme for synthesis of Q2-3 (methyl (E)-3-[2-(3,4-dihydroxyphenyl)-7-hydroxy-3-methoxycarbonyl-2,3-dihydro-1-benzofuran-5yl]prop-2-enoate) from two caffeic acid methyl ester molecules. […] The beginning cytotoxic dosage of Q2-3 was detected at 0.3 μM, with >50% kill rate on SKBR3 and MDA-MB-231 cells. […]
Background: Tetrazolium assays rely on reduction of a dye to a coloured formazan, in cell work by metabolically active cells.

The test system of data set [2] is myeloid derived suppressor cells (MDSCs). As to the kind of experiment: Flow cytometry of MDSCs in lung tissue, 4T1 tumor resection model. The class given is in vivo, mice. As to conditions: 10 μg/kg, 3 weeks post tumor resection. The procedure:
BALB/c mice were subcutaneously injected with 4T1-Luc2 cells (5×10^5/100 μl PBS/mouse) into the fourth mammary fat pad under isoflurane anesthesia. Tumor growth was monitored by measuring the tumor volume according to the formula: volume=length×(width)^2/2. After tumors were established (180-200 mm^3) on day 14, test mice were divided into different groups (8 mice/group) and subjected to different treatments. At 15 days post tumor cell implantation, primary 4T1 tumors in situ were surgically removed by a tumor resection process. For drug treatment, mice were administered with different agents, including vehicle-control (PBS), mouse IL-25 protein (10 μg/kg, ProSpec, Vineland, N.J.), Q2-3 (2, 20 or 100 μg/kg) or docetaxel (2 mg/kg; Sigma-Aldrich), by intravenous injection for 3 weeks (3 injections/week) post tumor resection. […] Bioluminescence signals from the 4T1-luc2 tumor cells in test mice were analyzed using a non-invasive IVIS imaging system (Calipers, Hopkinton, Mass.) after intraperitoneal injection of 150 mg/kg D-luciferin (NanoLight technology, Pinetop, Ariz.). […]
Suppressive effects of Q2-3 on in vivo expansion of MDSC populations were also evaluated for both the monocytic (CD11b^+Ly6C^+) and granulocytic (CD11b^+Ly6G^+) subsets of MDSCs. The populations of these two MDSC cell types in lung tissues of test mice were analyzed and compared at 3 weeks post tumor resection.
(In general: Flow cytometry measures light scatter and fluorescence of single cells or particles in a stream.)

A further data set relates to K562 cells. Conditions: cited from earlier work.
The next data set deals with MCF-7 cells. As to conditions: cited from earlier work.

In the case of `COC(=O)/C=C/c1cc(O)c2c(c1)C(C(=O)OC)C(c1ccc(O)c(O)c1)O2` (centres unmarked) [Q2-3, methyl(E)-3-[2-(3,4-dihydroxyphenyl)-7-hydroxy-3-methoxycarbonyl-2,3-dihydro-1-benzofuran-5yl]-prop-2-enoate], the viability (commonly a per cent measure of how many cells are alive, often set against a control) at 2 µM in data set [1] is ≥ 80%. In data set [2] (PBS control 0.9%), the “monocytic CD11b+Ly6C+ MDSC population in lung tissue” value was found to be 0.4%. Besides, the “granulocytic CD11b+Ly6G+ MDSC population in lung tissue” value in data set [2] (PBS control 42.9%) worked out at 12.5%. The anti-proliferation effect entry in the data set on K562 cells and with MCF-7 cells was “significant anti-proliferation effect” in each case.
